Assay results: a melting point compilation (Tetko et al.; mined from patent text by program, amines drawn as free bases though some values may be those of a salt)

Point of comparison: `Nc1cc(C(=O)c2ccccc2)ccc1Cl`, melting point 91.9 °C. Against it:
- CCON=C(CC)C1=C(O)CC(c2ccc(NC(C)=O)cc2)CC1=O (stereo unspecified) — higher, 135 to 136 °C
- NC(=O)N(O)Cc1sccc1Sc1ccc(Br)cc1 — higher, 124 to 126 °C
- CCCOc1ccc2c(c1)C(c1ccccc1OCC(=O)O)C(C(=O)O)C2c1ccc2c(c1)OCO2 (stereo unspecified) — higher, 169 to 170 °C
- O=c1nc(-c2ccnc(C3CNCCO3)c2)sc2ccccc12 (stereo unspecified) — higher, 157 to 158 °C
- Cc1cc(C)nc(-n2cnc(N)n2)n1 — higher, 235 to 238 °C
- CCN(CC)C(=O)COc1cccc(-n2nc(-c3ccc(F)cc3)c3cccnc32)c1 — higher, 102 to 105 °C
- CCOC(C#N)NC(=O)c1ccccc1 (stereo unspecified) — higher, 107 to 110 °C
- COc1ccc2nc(CO)n(C)c2n1 — higher, 138 to 140 °C
- CCn1cc(O)c(=O)c2ccccc21 — higher, 180 to 182 °C
- O=CN[C@H]1CC[C@H](CCN2CCN(c3nccc4c3CCO4)CC2)CC1 — higher, 170 °C
- CCOc1cc(OCC)c2c(c1)S(=O)(=O)N(COc1cc(C(F)(F)F)nn1-c1ccccc1)C2=O — higher, 159 to 160 °C
- CCCOc1ccc(CN2CCC(C(N)=O)CC2)cc1 — higher, 142 to 146 °C
- Cc1nnc2n1-c1ccc(C#CCN3C(=O)C4CC=CCC4C3=O)cc1C(c1ccccc1F)=NC2 (stereo unspecified) — higher, 259 to 261 °C
- OCC1OC(n2c(I)nc3cc(Cl)c(Cl)cc32)C(O)C1O (stereo unspecified) — higher, 180 to 182 °C
- CCOC(=O)N1CC=C(c2cc(F)c(C#N)cc2F)CC1 — lower, 85 to 87 °C
- CC(=O)Oc1ccc(C(=O)Oc2ccc(OC(=O)c3ccc(OC(C)=O)cc3)c(C)c2)cc1 — higher, 128 to 130 °C
- CC(C)N(C)C(=O)N1N=C2c3cc(F)ccc3OC[C@@H]2[C@@H]1c1ccccc1 (racemic) — higher, 102 to 105 °C
- c1ccc(-c2cc(-n3ccc4ccccc43)c3ccccc3n2)cc1 — higher, 100 to 102 °C
- COc1ccc(C(=O)Nc2ccccc2)cc1Nc1cccc(NC(C)=O)c1 — higher, 202 to 203 °C
- C[C@H]1[C@@H](C(N)=O)CCN1c1ccc(C#N)c2ccccc12 — higher, 204 to 206 °C
- Cc1nc2cc(-n3cccc3)ccc2s1 — not separable, 91 to 96 °C
- Nc1cnc(-c2ccc(Cl)cc2)n(CC(=O)NC(Cc2ccccc2)C(=O)C(F)(F)F)c1=O (stereo unspecified) — higher, 197 to 200 °C
- Clc1ccc(-c2cccs2)cn1 — higher, 124 to 126 °C
- O=C1c2ccccc2C(=O)N1CCc1cn(C2OCC(O)C(O)C2O)c(=O)[nH]c1=O (stereo unspecified) — higher, 137 °C
- CC(=O)OCC1OC(n2cc(Cc3ccc4occc4c3)c3c(F)cccc32)C(OC(C)=O)C(OC(C)=O)C1OC(C)=O (stereo unspecified) — higher, 184 to 185 °C
- Cc1cc(C)cc(N2C(=O)NC(C)(C3CC3)C2=O)c1 (stereo unspecified) — higher, 121 °C
- CN(C)CC(C)(C)C(NC(=O)c1ccc(Cl)cc1)NC(=NC#N)Nc1cccnc1 (stereo unspecified) — higher, 101 to 103 °C
- COC(=O)c1ccc2nc(C(F)(F)F)c(S(C)(=O)=O)nc2c1 — higher, 143 to 144 °C
- CCCc1cc(N2CCN(c3ccncc3)CC2)ccc1OCCCC(=O)O — higher, 207 to 209 °C
- COCc1cccc(OCCc2cnc(SC)[nH]c2=O)c1 — higher, 129 to 131 °C
- O=C1C(c2c[nH]c3ccccc23)=C(c2c[nH]c3ccccc23)C(=O)N1Cc1ccccc1 — higher, > 290 °C
- Cn1ncnc1-c1cc(S(C)(=O)=O)c2[nH]c(=O)ccc2c1 — higher, 226 to 232 °C
- CN1CCN(Cc2ccc(Cl)nc2)C1=N[N+](=O)[O-] — higher, 165 to 167 °C
- Cc1[nH]c([N+](=O)[O-])c(C)c1-c1ccnc(Nc2ccc(F)cc2)n1 — higher, 166 to 170 °C
- COc1cc2c(cc1Br)-c1c(-c3cncs3)c3c(n1CC2)C(=O)N(C(C)(C)C)CCOC3 — higher, 219 to 220 °C
- COC(=O)/C=C/c1cc([N+](=O)[O-])cn1C — higher, 146 to 147 °C
- NC(=O)N(O)Cc1cccc(OCc2coc(-c3ccc(F)cc3)n2)c1 — lower, 89 to 91 °C
- CC(C)c1cc(S(=O)(=O)c2c(Br)cc(CC(N)C(=O)O)cc2Br)ccc1O (stereo unspecified) — higher, 210 to 217 °C
- CC1(C)CCCc2cc3c(cc21)C(C)(C)CCC3(C)C — higher, 94 to 95 °C
- O=C(O)[C@H](Cc1ccc(C(F)(F)F)cc1)[C@@H](O)c1ccc(F)c(F)c1 (racemic) — lower, 76 to 77 °C
- COc1c(CC#N)c2c(c3c1OC(C)(C)C3)C(c1cccc(C(=O)NC(C)(C)C(N)=O)c1)=NC(C)(C)C2 — higher, 217 to 219 °C
- O=C(CNc1ccc2[nH]c(=O)oc2c1)N1CCC(Oc2ccc(Cl)cc2)CC1 — higher, 180 to 183 °C
- O=C(Nc1cccc(Cl)c1)ONC1=Nc2ccc([N+](=O)[O-])cc2C(c2ccccc2Cl)=NC1 — higher, 130 to 135 °C
- C=C(c1ccc(C(C)C)cc1)c1c(C)c(NC(=O)CCCC)c(C)c2c1OCC2 — higher, 172 to 173 °C
- COC(=O)c1c(C(=O)OC)n(Cc2cccc(C(N)=S)c2)c2ccccc12 — higher, 176 to 178 °C
- C=Cc1cc2ccccc2[nH]1 — lower, 91 °C
- CC(C)(C)OC(=O)Nc1ccc(C#Cc2ccc(F)cc2)cc1[N+](=O)[O-] — higher, 157 to 158 °C
- CC1(C)C(=O)Nc2cc3[nH]c(C4CC4)nc3cc21 — higher, 266 to 268 °C
- N#CCC1NC(=O)C(Cc2ccccc2)NC1=O (stereo unspecified) — higher, 255 to 256 °C
- COc1ccc(-c2ccccc2-c2ccc(S(C)(=O)=O)cc2)cc1Cl — higher, 162 °C
- Oc1ccc(-c2noc3cc(O)ccc23)c(O)c1 — higher, 300 to 305 °C
- COC(=O)/C=C/C=C(\c1ccc(OC)cc1)c1cccnc1 — lower, 75 to 76 °C
- CN(Cc1cc(C(C)(C)C)c(O)c(C(C)(C)C)c1)n1ccnc1 — higher, 139 °C
- CN(C)c1ccc2c(c1)Sc1cc(N(C)C=O)ccc1N2C=O — higher, 139 to 143 °C
- COc1ccc(N2CCN(c3c(C)c(C)c4c(c3C)C(N3CCCCC3)C(C)(C)O4)CC2)cc1OC (stereo unspecified) — higher, 134 to 135 °C
- O=C1NCC(CCc2ccccc2Br)O1 (stereo unspecified) — higher, 93.5 to 94.5 °C
- N#Cc1c(C(F)(F)F)ccc(Cl)c1Cl — lower, 53 to 54 °C
- CSC1=Nc2cc(Cl)ccc2Nc2cscc21 — higher, 111 to 113 °C
- O=[N+]([O-])c1ccc(Cn2cncn2)cc1 — higher, 98 to 100 °C
- COC(=O)C1=Cc2cc(-c3ccc(OC(C)C)cc3)ccc2S(=O)(=O)CC1 — higher, 140 to 142 °C
- CCN1C(=O)C2C3C=CC(CC3)C2(c2ccc(Cl)c(Cl)c2)C1=O (stereo unspecified) — higher, 122 to 126 °C
- CSc1cc(Oc2cccc(C(F)(F)F)c2)nc(C(=O)O)c1 — lower, 54 to 57 °C
- Cc1ccc2nc(NC(=O)c3c(Cl)cccc3Cl)cc(NN)c2c1C — higher, 190 to 198 °C
- CCn1cc(C(=O)O)c(=O)c2cnc(N3CCN(Cc4ccc(NC(C)=O)cc4)CC3)nc21 — higher, 216 to 219 °C
- Cc1ccc(Cl)cc1N1CCCN(C2CCC2)C1=S — higher, 152 to 154 °C
- CCCCCOC(=O)Cc1nc(-c2ccc(F)cc2)oc1-c1ccsc1 — lower, 78 to 80 °C
- Cc1cnc(CNC(=O)c2sc(N3CCN(CC4CC4)C3=O)nc2C)cn1 — higher, 161 to 163 °C
- Cc1c(F)c(N2CCC(C)(CN)C2)cc2c1c(=O)c(C(=O)O)cn2C1CC1 (stereo unspecified) — higher, 250 to 252 °C
- CCCCCCCCc1ccc(CCC(NC(C)=O)(C(=O)OCC)C(=O)OCC)cc1 — lower, 61 °C
- COc1ccc(CF)c(CN(C(C)=O)c2cc(F)ccc2Oc2ccccc2)c1 — lower, 71 to 72 °C
- CCC(=O)NC1=NN(c2ccccc2)C(C)C1 (stereo unspecified) — higher, 96 to 96.5 °C
- CC(SC(=S)c1cc(C(C)(C)C)c(O)c(C(C)(C)C)c1)c1ccccc1 (stereo unspecified) — lower, 70 to 72 °C
- COc1ccc2cc(-c3cnc(Cc4ccc5ccccc5c4)o3)ccc2c1 — higher, 159 to 162 °C
- CCOC(=O)c1nc2ccccc2[nH]c1=O — higher, 169 to 170 °C
- O=c1oc(-c2ccccc2)cc(O)c1SCC1CC1 — higher, 136 to 137 °C
- CCCCCCCCCCCCCCOC(=O)n1cc(-c2ccccc2)nc1O — higher, 166 to 171 °C
- O=C1Nc2cccnc2N(C(=O)NCCN2CCC(CCCN3CCCCC3)CC2)c2ccccc21 — higher, 192 to 193 °C
- COc1cc(C(=O)c2nc3ccccc3[nH]2)cc([N+](=O)[O-])c1OC — higher, 212 to 213 °C
- Cc1c2n3ccc4c3c(c3cnccn3c-2cc(=O)c1=O)CCC4 — not separable, > 80 °C
- CC(C)NC1=NS(=O)(=O)c2ccc(C(C)C)cc2N1 — higher, 237 to 239 °C
- COc1cc(-c2cc(C(C)C)nn2C)cc2oc(=O)c(C)c(C)c12 — higher, 125 to 126 °C
- C=CCONC(CCC)=C1C(=O)OC(CCC)=C(Br)C1=O — lower, 50 to 51 °C
- CON(C)C(=O)/C=C/C(=C(c1ccc(F)cc1)c1ccc(F)cc1)C(C)C — higher, 109 to 110 °C
- O=C(O)c1ccc2c(c1)Cc1ccccc1O2 — higher, 298 to 299 °C
- O=c1c2cc(F)c(N3CCCC3)cc2n(-c2ccc(F)cc2)c(=O)n1O — higher, 183 to 185 °C
- CCOC(=O)CC(=O)c1cc(F)c(F)cc1F — lower, 57 to 59 °C
- CCCn1c(=O)c2[nH]c(C34CC5CC3CC(C4)C5=O)nc2n(CCC)c1=O — higher, 172 to 174 °C
- CCOC(=O)c1nc(NC)sc1C(=O)CBr — higher, 130 to 132 °C
- COC(=O)c1ccc(-c2nc(-c3ccccc3)n(C)n2)cc1 — higher, 167 to 168 °C
- COc1ccc(C2=NN(C3CCN(C(=O)c4c(Cl)cc(Cl)cc4Cl)CC3)C(=O)CC2)cc1OC — higher, 156 to 159 °C
- CC1CN(c2ccc(Cl)c(Cl)c2)N=C1NC=O (stereo unspecified) — higher, 150 to 152 °C
- Cn1nc(-c2ccccc2)c(Oc2ccc([N+](=O)[O-])cc2)c1-c1ccccc1 — not separable, 85 to 110 °C
- O=C1c2ccc(Cl)cc2C(=O)N1C1CCN(CCc2c[nH]c3ccccc23)CC1 — higher, 188 to 190 °C
- CCN1c2ccccc2CC1CNC(=N)N (stereo unspecified) — higher, 199 °C
- COc1cccc(-n2c(-c3cc(-c4ccc(S(C)(=O)=O)cc4)c(N4CCOCC4)s3)nc3ccccc3c2=O)c1 — higher, 203 to 205 °C
- COc1cc2c(c3c1OC(C)(C)C3)C(c1cccc(-c3ccc(NC(C)=O)nc3)c1)=NC(C)(C)C2 — higher, 208 to 209 °C
- CON(O)C(=O)c1ccccc1 — lower, 58 to 60 °C
- COc1cc(OC)c(C(=O)C=CC(=O)O)cc1OC — higher, 207 to 208 °C
- Oc1ccc2c(-c3cccnc3)coc2c1 — higher, 167 to 168 °C
- O=C1N(Cc2nc(C(F)(F)F)cs2)c2ccccc2C12COc1cc3c(cc12)OCCO3 (stereo unspecified) — higher, 169 to 170 °C
